Laboratory results from patent US6020343A, “(Methylsulfonyl)phenyl-2-(5H)-furanones as COX-2 inhibitors” (Merck Frosst Canada, Inc., priority 1998, dated 2000).
Blank lines part the entries; values can stand above or below the molecule they belong to.

How the values were obtained:
CHO [hCOX-1] = molecular target: T1, CHO [hCOX-1] (Homo sapiens, UniProt P23219); experiment: Whole Cell Assay for COX-1 using CHO Transfected Cell Lines; type: cell-based; details: CHO [hCOX-1] cells, 0.5 μM AA, PGE2
T1 construct: expressed in transfected cells; host or cells: Chinese hamster ovary (CHO) cells, vector pCDNAIII
Method: Chinese hamster ovary (CHO) cell lines which have been stably transfected with an eukaryotic expression vector pCDNAIII containing either the human COX-1 or COX-2 cDNA's are used for the assay. These cell lines are referred to as CHO [hCOX-1] and CHO [hCOX-2], respectively. […] Cells (0.3×10^6 cells in 200 μl) are preincubated with 3 μl of the test drug or DMSO vehicle for 15 min at 37° C. […] Cells are then challenged in the presence or absence of drug with the AA/HBSS solution to yield a final concentration of 0.5 μM AA in the CHO[hCOX-1] assay and a final concentration of 10 μM AA in the CHO[hCOX-2] assay. […] The samples are centrifuged at 300×g at 4° C. for 10 min, and an aliquot of the clarified supernatant is appropriately diluted for the determination of PGE2 levels using an enzyme-linked immunoassay for PGE2 (Correlate PGE2 enzyme immunoassay kit, Assay Designs, Inc.). Cyclooxygenase activity in the absence of test compounds is determined as the difference in PGE2 levels of cells challenged with arachidonic acid versus the PGE2 levels in cells mock-challenged with ethanol vehicle. Inhibition of PGE2 synthesis by test compounds is calculated as a percentage of the activity in the presence of drug versus the activity in the positive control samples.

[1] = system: carrageenan-induced paw edema; experiment: Rat Paw Edema Assay; type: in vivo, Male Sprague-Dawley rats; details: po, paw volume 3 hr, Table IV
Method: Male Sprague-Dawley rats (150-200 g) are fasted overnight and are given, po, either vehicle (1% methocel or 5% Tween 80) or a test compound. One hr later, a line is drawn using a permanent marker at the level above the ankle in one hind paw to define the area of the paw to be monitored. The paw volume (V0) is measured using a plethysmometer (Ugo-Basile, Italy) based on the principle of water displacement. The animals are then injected subplantarly with 50 μl of 1% carrageenan solution in saline (FMC Corp, Maine) into the paw using an insulin syringe with a 25-gauge needle (i.e. 500 μg carrageenan per paw). Three hr later, the paw volume (V3) is measured and the increases in paw volume (V3 -VO) are calculated. The animals are sacrificed by CO2 asphyxiation and the absence or presence of stomach lesions scored. Data is compared with the vehicle-control values and percent inhibition calculated. All treatment groups are coded to eliminate observer bias.

COX-1 [2] = molecular target: T2, COX-1 (Homo sapiens, UniProt P23219); experiment: Human Whole Blood Assay, COX-1 (Clotting-induced TxB2 Production); type: cell-based; set-up: endogenous in cells; details: clotting-induced TxB2, 1 hour, Table III, read-out: COX-1 (IC50) HWB
Text: As well, platelets in whole blood contain a large amount of the COX-1 enzyme. Immediately following blood clotting, platelets are activated through a thrombin-mediated mechanism. […] Therefore, the degree of selectivity by the test compound can be determined by measuring the levels of PGE2 after LPS induction (COX-2) and TxB2 following blood clotting (COX-1) in the same assay.
B. COX-1 (Clotting-induced TxB2 Production)
Fresh blood is collected into vacutainers containing no anticoagulants. Aliquots of 500 μL are immediately transferred to siliconized microcentrifuge tubes preloaded with 2 μL of either DMSO or a test compound at final concentrations varying from 10 nM to 30 μM. The tubes are vortexed and incubated at 37° C. for 1 hour to allow blood to clot. At the end of incubation, serum is obtained by centrifugation (12,000×g for 5 min.). A 100 μL aliquot of serum is mixed with 400 μL of methanol for protein precipitation.

COX-1 [3] = molecular target: T2, COX-1; experiment: Assay of COX-1 Activity from U937 Cell Microsomes (U937); type: biochemical; set-up: human U-937 cells (which specifically express COX-1); endogenous in cells; host or cells: microsomes of U937 cells; details: U937, PGE2; Table III
Method: Compounds are tested as inhibitors of cyclooxygenase activity in whole cell cyclooxygenase assays. Both of these assays measure prostaglandin E2 synthesis in response to arachidonic acid, using a radioimmunoassay. Cells used for these assays are human osteosarcoma 143 cells (which specifically express COX-2) and human U-937 cells (which specifically express COX-1). In these assays, 100% activity is defined as the difference between prostaglandin E2 synthesis in the absence and presence of arachidonate.
For cyclooxygenase assays, osteosarcoma cells are cultured in 1 mL of media in 24-well multidishes (Nunclon) until confluent (1-2×10^5 cells/well). […] All assays are performed in triplicate. […] Arachidonic acid (peroxide-free, Cayman Chemical) is prepared as a 10 mM stock solution in ethanol and further diluted 10-fold in HBSS. An aliquot of 10 μL of this diluted solution is added to the cells to give a final arachidonic acid concentration of 10 μM. Control samples are incubated with ethanol vehicle instead of arachidonic acid. Samples are again gently mixed and incubated for a further 10 min. at 37° C. For osteosarcoma cells, reactions are then stopped by the addition of 100 μL of 1N HCl, with mixing and by the rapid removal of the solution from cell monolayers. For U-937 cells, reactions are stopped by the addition of 100 μL of 1N HCl, with mixing.
U 937 cells are pelleted by centrifugation at 500×g for 5 min and washed once with phosphate-buffered saline and repelleted. Cells are resuspended in homogenization buffer consisting of 0.1 M Tris-HCl, pH 7.4, 10 mM EDTA, 2 μg/ml leupeptin, 2 μg/ml soybean trypsin inhibitor, 2 μg/ml aprotinin and 1 mM phenyl methyl sulfonyl fluoride. The cell suspension is sonicated 4 times for 10 sec and is centrifuged at 10,000×g for 10 min at 4° C. The supernatant is centrifuged at 100,000×g for 1 hr at 4° C. The 100,000×g microsomal pellet is resuspended in 0.1 M Tris-HCl, pH 7.4, 10 mM EDTA to approximately 7 mg protein/ml and stored at -80° C.
Assays are performed in duplicate in a final volume of 250 μl. […]

T1 sequence (P23219 24-599): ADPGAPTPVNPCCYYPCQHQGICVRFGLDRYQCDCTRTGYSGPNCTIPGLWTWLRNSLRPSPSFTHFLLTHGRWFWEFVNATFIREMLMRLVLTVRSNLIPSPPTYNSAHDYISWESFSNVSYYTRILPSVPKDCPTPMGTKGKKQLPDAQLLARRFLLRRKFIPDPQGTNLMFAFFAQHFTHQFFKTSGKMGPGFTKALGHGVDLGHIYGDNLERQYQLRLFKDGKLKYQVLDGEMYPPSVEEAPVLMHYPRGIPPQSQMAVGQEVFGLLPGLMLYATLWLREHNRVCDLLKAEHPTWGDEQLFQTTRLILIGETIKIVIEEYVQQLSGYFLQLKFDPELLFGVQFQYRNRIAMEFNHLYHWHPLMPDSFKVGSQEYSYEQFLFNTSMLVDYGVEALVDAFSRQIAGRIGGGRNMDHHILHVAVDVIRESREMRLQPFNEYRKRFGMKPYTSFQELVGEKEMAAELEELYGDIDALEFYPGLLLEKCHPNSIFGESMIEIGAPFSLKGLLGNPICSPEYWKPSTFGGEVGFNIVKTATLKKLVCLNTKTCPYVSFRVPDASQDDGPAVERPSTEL
T2 sequence (P23219 24-599): as above

Compound: CC1(C)OC(=O)C(Oc2ccc(F)cn2)=C1c1ccc(S(C)(=O)=O)cc1 [Example 58]
- IC50 (CHO [hCOX-1]; Table IV): > 50 µM
- ED50 [1]: 0.32 mg/kg

Compound: CC1(C)OC(=O)C(Oc2cc(F)cc(F)c2)=C1c1ccc(S(C)(=O)=O)cc1 [Example 3]
- IC50 (COX-1 [3]): 1 µM

Compound: CC1(C)OC(=O)C(Oc2ccc(Br)cn2)=C1c1ccc(S(C)(=O)=O)cc1 [Example 108]
- IC50 (CHO [hCOX-1]; Table IV): > 50 µM

Compound: CC1(C)OC(=O)C(Oc2ccc(Cl)cn2)=C1c1ccc(S(C)(=O)=O)cc1 [Example 25, 3-(5-Chloro-2-pyridyloxy)-5,5-dimethyl-4-(4-(methylsulfonyl)phenyl)-5H-furan-2-one]
- IC50 (COX-1 [3]): 3 µM

Now from value to molecule:

- IC50 (COX-1 [2]): 23 µM
Compound: CC1(C)OC(=O)C(Oc2cccc(F)c2)=C1c1ccc(S(C)(=O)=O)cc1 [Example 2, 3-(3-Fluorophenoxy)-5,5-dimethyl-4-(4-(methylsulfonyl)phenyl)-5H-furan-2-one]

- IC50 (COX-1 [3]): > 10 µM
Compound: CS(=O)(=O)c1ccc(C2=C(Sc3ccccc3)C(=O)OC2)cc1 [Example 15, 3-Phenylthio-4-(4-(methylsulfonyl)phenyl)-5H-furan-2-one]

- IC50 (COX-1 [2]): 1.8 µM
Compound: CC1(C)OC(=O)C(Oc2ccc(Cl)cc2)=C1c1ccc(S(C)(=O)=O)cc1 [Example 6, 3-(4-Chlorophenoxy)-5,5-dimethyl-4-(4-(methylsulfonyl)phenyl)-5H-furan-2-one]

- IC50 (CHO [hCOX-1]; Table III): > 50 µM
Compound: CC1(C)OC(=O)C(C(=O)c2ccccc2)=C1c1ccc(S(C)(=O)=O)cc1 [Example 19b, 3-Benzoyl-5,5-dimethyl-4-(4-(methylsulfonyl)phenyl)-5H-furan-2-one]
